Source: the NIST ThermoML archive (doi:10.1021/je060271a)

Details: 283.15 K, Liquid, Vibrating tube method

CCCC(=O)OCC(COC(=O)CCC)(COC(=O)CCC)COC(=O)CCC [pentaerythritol tetrabutyrate]
Details | mass density [kg/m3]
22400 kPa | 1071.8
22416 kPa | 1071.7
22432 kPa | 1071.7
22448 kPa | 1071.7
22467 kPa | 1071.7
22485 kPa | 1071.7
22500 kPa | 1071.8
22516 kPa | 1071.7
22535 kPa | 1071.9
22551 kPa | 1072
22567 kPa | 1071.8
22586 kPa | 1071.9
22602 kPa | 1071.9
22618 kPa | 1071.8
22634 kPa | 1071.9
22654 kPa | 1071.9
22670 kPa | 1072
22686 kPa | 1071.9
22706 kPa | 1071.9
22722 kPa | 1071.9
22738 kPa | 1071.9
22754 kPa | 1071.9
22774 kPa | 1071.9
22806 kPa | 1072
22894 kPa | 1072.1
22914 kPa | 1072
22930 kPa | 1072.1
22946 kPa | 1072
22964 kPa | 1072.1
22984 kPa | 1072
23000 kPa | 1072.1
23143 kPa | 1072.2
23160 kPa | 1072.1
23177 kPa | 1072.1
23197 kPa | 1072.2
23214 kPa | 1072.3
23231 kPa | 1072.3
23249 kPa | 1072.2
23286 kPa | 1072.2
23303 kPa | 1072.3
23324 kPa | 1072.2
23341 kPa | 1072.3
23358 kPa | 1072.2
23379 kPa | 1072.2
23396 kPa | 1072.3
23413 kPa | 1072.3
23731 kPa | 1072.5
23749 kPa | 1072.5
23882 kPa | 1072.6
23900 kPa | 1072.5
23921 kPa | 1072.6
23939 kPa | 1072.5
23958 kPa | 1072.7
23980 kPa | 1072.6
23998 kPa | 1072.5
24016 kPa | 1072.7
24272 kPa | 1072.8
24291 kPa | 1072.8
24313 kPa | 1072.8
24675 kPa | 1073
24694 kPa | 1073
24718 kPa | 1073
24737 kPa | 1073
24756 kPa | 1073
24780 kPa | 1073
24799 kPa | 1073.1
24819 kPa | 1073
24842 kPa | 1073.1
24862 kPa | 1073.1
24882 kPa | 1073.1
24902 kPa | 1073.1
24926 kPa | 1073.1
24945 kPa | 1073.1
24969 kPa | 1073.2
25008 kPa | 1073.3
25032 kPa | 1073.1
25052 kPa | 1073.1
25072 kPa | 1073.2
25092 kPa | 1073.2
25112 kPa | 1073.3
25136 kPa | 1073.2
25157 kPa | 1073.1
25182 kPa | 1073.3
25201 kPa | 1073.3
25225 kPa | 1073.2
25246 kPa | 1073.2
25266 kPa | 1073.3
25287 kPa | 1073.3
25311 kPa | 1073.3
25332 kPa | 1073.3
25353 kPa | 1073.3
25378 kPa | 1073.3
25399 kPa | 1073.4
25420 kPa | 1073.3
25441 kPa | 1073.3
25465 kPa | 1073.5
25486 kPa | 1073.3
25598 kPa | 1073.4
25620 kPa | 1073.5
25641 kPa | 1073.6
25666 kPa | 1073.5
25688 kPa | 1073.6
25710 kPa | 1073.5
25731 kPa | 1073.6
25757 kPa | 1073.5
25778 kPa | 1073.5
25799 kPa | 1073.5
25820 kPa | 1073.5
25846 kPa | 1073.6
25867 kPa | 1073.5
25889 kPa | 1073.7
25915 kPa | 1073.5
25936 kPa | 1073.6
25958 kPa | 1073.7
25985 kPa | 1073.7
26009 kPa | 1073.6
26031 kPa | 1073.7
26052 kPa | 1073.7
26074 kPa | 1073.8
26101 kPa | 1073.8
26122 kPa | 1073.6
26148 kPa | 1073.8
26170 kPa | 1073.8
26193 kPa | 1073.7
26219 kPa | 1073.8
26241 kPa | 1073.8
26264 kPa | 1073.8
26290 kPa | 1073.8
26313 kPa | 1073.8
26334 kPa | 1073.8
26361 kPa | 1073.8
26384 kPa | 1073.9
26406 kPa | 1073.8
26429 kPa | 1073.8
26456 kPa | 1074
26478 kPa | 1073.9
26501 kPa | 1073.8
26722 kPa | 1074
26740 kPa | 1074
26772 kPa | 1074.1
26796 kPa | 1074
26824 kPa | 1074.1
26848 kPa | 1074.1
26871 kPa | 1074.2
26899 kPa | 1074.2
26923 kPa | 1074
